pIC50: −log10 of the molar value.
Columns and labels:
P-gp (human MDR1) = molecular target: T1, P-gp (human MDR1) (Homo sapiens, UniProt P08183); experiment: p-gp (P-glycoprotein) assay, bidirectional transcellular transport in LLC-PK1 and L-MDR1 cells; format: in vitro ADME; conditions: presumably transport efflux ratio (ER)
T1 construct: host or cells: LLC-PK1 (porcine kidney epithelial cell line)
Description: p-gp (P-glycoprotein) Assay
Cell Lines and Vesicles Used for Transport Experiments
The LLC-PK1 cell line (ATCC #CL-101) is a porcine kidney epithelial cell line. The MDR1 (Human multidrug resistance protein 1) transfected cell lines were obtained from Dr. A. Schinkel, The Netherlands Cancer Institute (Amsterdam, The Netherlands). All cell lines were cultured on permeable inserts (Costar, 0.33 cm^2 area, pore size 3.0 μm, low density) at 4.5·10^5 cells/cm^2. Transport measurements were performed at day 4 after seeding. Tightness of the cell monolayer was controlled via the permeability of the extracellular marker lucifer yellow (10 μM). […]
The method used for transport experiments was reported Schwab et al. (see above.). […] Concentrations of substrate in both compartments were determined by scintillation counting (digoxin) or by LC-MS/MS. The extracellular marker (lucifer yellow) was quantified using a spectrafluor plus reader at 430/535 nm (Ex/Em). In each experiment 3 different inserts were used for each condition and a mean was calculated. […]
[formula] where Papp, A, C0, and dQ/dt represent the apparent permeability, the filter surface area, the initial concentration, and the amount transported per time period, respectively. Papp values were calculated on the basis of a single time point (2 h). Transport efflux ratios (ER) were calculated as follows: […]

[1] = molecular target: T2, recombinant human cathepsin E (Homo sapiens, UniProt P14091); experiment: Cathepsin E fluorescent substrate kinetic assay; format: biochemical; conditions: pH 4.5, substrate MR121-[…]
T2 construct: purchased R&D Systems
T2 sequence (P14091 54-396): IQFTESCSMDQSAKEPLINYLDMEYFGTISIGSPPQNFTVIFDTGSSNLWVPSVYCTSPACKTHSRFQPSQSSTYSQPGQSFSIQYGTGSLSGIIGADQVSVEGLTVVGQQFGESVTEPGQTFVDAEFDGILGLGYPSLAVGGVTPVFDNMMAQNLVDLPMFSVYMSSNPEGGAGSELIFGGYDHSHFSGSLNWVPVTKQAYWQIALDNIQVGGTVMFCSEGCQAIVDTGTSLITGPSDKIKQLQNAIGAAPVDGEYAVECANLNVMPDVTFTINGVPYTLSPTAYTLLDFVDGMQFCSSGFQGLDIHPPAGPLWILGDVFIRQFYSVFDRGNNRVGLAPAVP
From the text: Cathepsin D and Cathepsin E Fluorescent Substrate Kinetic Assays
The MR121 fluorescence assays described below are based on the fact that MR121 forms a non-fluorescent ground state complex with tryptophan. In solution this formation occurs at millimolar concentrations of tryptophan. The mechanism can be used to design a generic biochemical assay for proteases. A substrate peptide is labeled at the N-terminus with tryptophan and at the C-terminus with the fluorophore MR121 (for cathepsin D the 10 amino acid peptide […]-MR121 was used; for cathepsin E, MR121-[…] was used). In absence of protease activity, the substrates remain intact and the MR121 fluorescence is reduced by the high local Trp-concentration. If the substrates are cleaved by the enzymes the MR121 fluorescence is recovered.
The fluorescent substrate cathepsin D and cathepsin E kinetic assays were performed at room temperature in 384-well microtiter plates (black with clear flat bottom, non binding surface plates from Corning) in a final volume of 51 μl. […] The enzymatic reaction was followed in a plate: vision reader (Perkin Elmer) (excitation wavelength: 630 nm; emission: 695 nm) for at least 30 minutes in a kinetic measurement detecting an increase of MR121 fluorescence during the reaction time. […]

T1 sequence (P08183 whole entry): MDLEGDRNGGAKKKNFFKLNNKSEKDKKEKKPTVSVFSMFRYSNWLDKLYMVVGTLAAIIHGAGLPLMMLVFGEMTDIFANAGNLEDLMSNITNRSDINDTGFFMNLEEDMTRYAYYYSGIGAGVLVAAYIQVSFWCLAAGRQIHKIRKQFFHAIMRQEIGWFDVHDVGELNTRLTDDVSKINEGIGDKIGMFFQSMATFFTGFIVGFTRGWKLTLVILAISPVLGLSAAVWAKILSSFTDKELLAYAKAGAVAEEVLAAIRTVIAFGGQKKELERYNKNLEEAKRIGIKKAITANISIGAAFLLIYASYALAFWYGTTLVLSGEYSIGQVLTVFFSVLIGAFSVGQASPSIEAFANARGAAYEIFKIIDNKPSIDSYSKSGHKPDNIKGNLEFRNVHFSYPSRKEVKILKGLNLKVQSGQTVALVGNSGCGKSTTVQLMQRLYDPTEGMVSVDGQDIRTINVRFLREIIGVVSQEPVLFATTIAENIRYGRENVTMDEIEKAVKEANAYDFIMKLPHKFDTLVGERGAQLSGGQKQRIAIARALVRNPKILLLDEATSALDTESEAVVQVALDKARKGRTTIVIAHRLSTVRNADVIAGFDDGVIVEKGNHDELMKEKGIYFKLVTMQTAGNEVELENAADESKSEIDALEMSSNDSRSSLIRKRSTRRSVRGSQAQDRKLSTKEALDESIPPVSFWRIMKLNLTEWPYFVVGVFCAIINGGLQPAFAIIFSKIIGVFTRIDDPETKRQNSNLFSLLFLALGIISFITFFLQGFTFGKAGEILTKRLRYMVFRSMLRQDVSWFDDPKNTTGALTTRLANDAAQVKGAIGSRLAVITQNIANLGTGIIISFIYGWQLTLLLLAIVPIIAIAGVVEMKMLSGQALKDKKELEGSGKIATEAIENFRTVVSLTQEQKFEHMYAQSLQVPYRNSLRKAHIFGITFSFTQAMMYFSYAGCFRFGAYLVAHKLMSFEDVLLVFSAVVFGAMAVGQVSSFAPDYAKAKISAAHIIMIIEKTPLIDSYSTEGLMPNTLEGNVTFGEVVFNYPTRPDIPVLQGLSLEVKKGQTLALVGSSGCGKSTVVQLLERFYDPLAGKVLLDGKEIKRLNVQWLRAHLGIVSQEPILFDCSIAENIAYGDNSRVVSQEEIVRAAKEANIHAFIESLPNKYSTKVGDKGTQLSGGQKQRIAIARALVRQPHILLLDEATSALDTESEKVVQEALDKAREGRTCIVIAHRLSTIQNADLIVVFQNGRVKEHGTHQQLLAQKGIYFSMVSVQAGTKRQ

efflux ratio at 2 h (P-gp (human MDR1))	pIC50 [1]	Compound
1.1	5.42	CC1(c2cccc(-c3cc(Cl)cc(Cl)c3)c2)COCC(N)=N1 (stereo not shown) [Example 32, 5-(3′,5′-Dichloro-biphenyl-3-yl)-5-methyl-5,6-dihydro-2H-[1,4]oxazin-3-ylamine]
11	4.89	CC1(c2cc(-c3cncnc3)ccc2F)COCC(N)=N1 (stereo not shown) [Example 36, 5-(2-Fluoro-5-pyrimidin-5-yl-phenyl)-5-methyl-5,6-dihydro-2H-[1,4]oxazin-3-ylamine]

From patent US8399459B2, “1,4 oxazines as BACE1 and/or BACE2 inhibitors” (Hoffmann-La Roche Inc., priority 2011, dated 2013)
